Data: PubChem BioAssay AID328 (DTP/NCI, 2004)
Where “and” joins values, the source holds several entries; their conditions need not be identical. Identical values can stand only once. Inconclusive results and toxic doses are left out.

Tested on: BDF1 mice, P388 leukemia ip, median survival T/C
Experiment: NCI In Vivo Anticancer Drug Screen. Data for tumor model P388 Leukemia (intraperitoneal) in B6D2F1 (BDF1) mice
Conditions: endpoint: median survival time, higher = longer survival
How it was run: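 Transplantable tumour in mice; compound vs vehicle dosing; survival scored; ratio of treated to control reported.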

[1] = dose: 100.0 mg/kg/injection, schedule: Q04DX003 (ip), vehicle: saline with Tween-80
[2] = dose: 200.0 mg/kg/injection, schedule: Q04DX003 (ip), vehicle: saline with Tween-80
[3] = dose: 400.0 mg/kg/injection, schedule: Q04DX003 (ip), vehicle: saline with Tween-80
[4] = dose: 50.0 mg/kg/injection, schedule: Q01DX009 (ip), vehicle: saline with Tween-80
[5] = dose: 100.0 mg/kg/injection, schedule: Q01DX009 (ip), vehicle: saline with Tween-80
[6] = dose: 200.0 mg/kg/injection, schedule: Q01DX009 (ip), vehicle: saline with Tween-80
[7] = dose: 200.0 mg/kg/injection, schedule: Q01DX009 (ip), vehicle: Klucel (hydroxypropylcellulose) (HPC)
[8] = dose: 100.0 mg/kg/injection, schedule: Q04DX003 (ip), vehicle: Klucel (hydroxypropylcellulose) (HPC)
[9] = dose: 200.0 mg/kg/injection, schedule: Q04DX003 (ip), vehicle: Klucel (hydroxypropylcellulose) (HPC)
[10] = dose: 25.0 mg/kg/injection, schedule: Q01DX009 (ip), vehicle: saline with Tween-80
[11] = dose: 50.0 mg/kg/injection, schedule: Q01DX009 (ip), vehicle: other
[12] = dose: 100.0 mg/kg/injection, schedule: Q01DX009 (ip), vehicle: other

In the case of `C1CN1P1(N2CC2)=NP(N2CC2)(N2CC2)=NP(N2CC2)(N2CC2)=NP(N2CC2)(N2CC2)=N1`, the T/C (dose: 0.27 mg/kg/injection, schedule: Q01DX009 (ip), vehicle: saline) is reported as 116 % of control, the T/C (dose: 0.4 mg/kg/injection, schedule: Q01DX009 (ip), vehicle: saline) is reported as 112 % of control and the T/C (dose: 0.62 mg/kg/injection, schedule: Q01DX009 (ip), vehicle: saline) is reported as 172 % of control. The T/C (dose: 0.63 mg/kg/injection, schedule: Q04DX003 (ip), vehicle: saline) was 113 % of control, the T/C (dose: 1.25 mg/kg/injection, schedule: Q01DX009 (ip), vehicle: saline) was 159 % of control and the T/C (dose: 1.9 mg/kg/injection, schedule: Q04DX003 (ip), vehicle: saline) was 154 % of control. For the same compound, the T/C (dose: 2.5 mg/kg/injection, schedule: Q01DX009 (ip), vehicle: saline) was 200 % of control, the T/C (dose: 2.5 mg/kg/injection, schedule: Q04DX003 (ip), vehicle: saline) was 166 % of control and the T/C (dose: 2.9 mg/kg/injection, schedule: Q04DX003 (ip), vehicle: saline) was 168 % of control. The T/C (dose: 4.4 mg/kg/injection, schedule: Q04DX003 (ip), vehicle: saline) was 186 % of control, the T/C (dose: 5.0 mg/kg/injection, schedule: Q04DX003 (ip), vehicle: saline) was 219 % of control and the T/C (dose: 6.6 mg/kg/injection, schedule: Q01DX009 (ip), vehicle: saline) was 240 % of control. The T/C (dose: 10.0 mg/kg/injection, schedule: Q04DX003 (ip), vehicle: saline) was 225 % of control and 223 % of control, the T/C (dose: 13.2 mg/kg/injection, schedule: Q04DX003 (ip), vehicle: saline) was 100 % of control and the T/C (dose: 13.3 mg/kg/injection, schedule: Q04DX003 (ip), vehicle: saline) was 223 % of control. The T/C (dose: 15.0 mg/kg/injection, schedule: Q01DX009 (ip), vehicle: saline) was 155 % of control, the T/C (dose: 30.0 mg/kg/injection, schedule: Q04DX003 (ip), vehicle: saline) was 285 % of control and the T/C (dose: 40.0 mg/kg/injection, schedule: Q04DX003 (ip), vehicle: saline) was 105 % of control.
`c1cc[n+]2c(c1)-c1cccc[n+]1CC2` was tested, and the T/C (dose: 3.13 mg/kg/injection, schedule: Q04DX003 (ip), vehicle: saline) was 100 % of control, the T/C (dose: 6.25 mg/kg/injection, schedule: Q04DX003 (ip), vehicle: saline) was 95 % of control and the T/C (dose: 12.5 mg/kg/injection, schedule: Q04DX003 (ip), vehicle: saline) was 100 % of control.
For `C=C(C)C12OC3(c4ccccc4)OC1C1C4OC4(CO)C(O)C4(O)C(=O)C(C)=CC4C1(O3)C(C)C2O` (stereo not drawn), the T/C (dose: 25.0 micrograms/kg/injection, schedule: Q01DX009 (ip), vehicle: saline + alcohol) was 95 % of control and 102 % of control, the T/C (dose: 50.0 micrograms/kg/injection, schedule: Q01DX009 (ip), vehicle: saline + alcohol) was 93 % of control and the T/C (dose: 100.0 micrograms/kg/injection, schedule: Q01DX009 (ip), vehicle: saline + alcohol) was 107 % of control. For the same compound, the T/C (dose: 200.0 micrograms/kg/injection, schedule: Q01DX009 (ip), vehicle: saline + alcohol) was 103 % of control and 110 % of control, the T/C (dose: 800.0 micrograms/kg/injection, schedule: Q01DX009 (ip), vehicle: saline + alcohol) was 116 % of control and the T/C (dose: 1600.0 micrograms/kg/injection, schedule: Q01DX009 (ip), vehicle: saline + alcohol) was 106 % of control.
For `C[C@]1(O)CC[C@H]2[C@@H]3CCC4=CC(=O)CC[C@]4(C)[C@@]3(Cl)[C@@H](O)C[C@@]21C`, the T/C (dose: 100.0 mg/kg/injection, schedule: Q01DX009 (ip), vehicle: saline sonified) was 100 % of control, the T/C [1] was 95 % of control and the T/C (dose: 200.0 mg/kg/injection, schedule: Q01DX009 (ip), vehicle: saline sonified) was 100 % of control. For the same compound, the T/C [2] was 100 % of control, the T/C (dose: 400.0 mg/kg/injection, schedule: Q01DX009 (ip), vehicle: saline sonified) was 100 % of control and the T/C [3] was 100 % of control.
`NC(=S)N/N=C/c1nccc2ccccc12` was tested, and the T/C (dose: 18.8 mg/kg/injection, schedule: Q01DX009 (ip), vehicle: saline with Tween-80) was 158 % of control, the T/C (dose: 37.5 mg/kg/injection, schedule: Q01DX009 (ip), vehicle: saline with Tween-80) was 185 % of control and the T/C (dose: 75.0 mg/kg/injection, schedule: Q01DX009 (ip), vehicle: saline with Tween-80) was 235 % of control. The T/C (dose: 300.0 mg/kg/injection, schedule: Q01DX009 (ip), vehicle: saline with Tween-80) was 91 % of control.
With `CC1=Cc2ccc(C)cc2C(=O)C1=O` the T/C (dose: 3.13 mg/kg/injection, schedule: Q01DX009 (ip), vehicle: Klucel (hydroxypropylcellulose) (HPC)) was 102 % of control and the T/C (dose: 6.25 mg/kg/injection, schedule: Q01DX009 (ip), vehicle: Klucel (hydroxypropylcellulose) (HPC)) was 108 % of control.
In the case of `O=S(=O)(CCBr)CCBr`, the T/C [4] is reported as 100 % of control, the T/C [5] is reported as 104 % of control and the T/C [1] is reported as 100 % of control. For the same compound, the T/C [2] was 100 % of control.
With `Cc1cc(Cl)ccc1Nc1sc(C(=O)c2cc3cc(Cl)ccc3o2)c(N)c1C#N` the T/C [4] was 104 % of control, the T/C [5] was 93 % of control and the T/C [6] was 89 % of control.
For `Cn1c(=O)c2c(ncn2C)n(C)c1=O`, the T/C (dose: 50.0 mg/kg/injection, schedule: Q01DX010 (ip), vehicle: saline) was 100 % of control, the T/C (dose: 100.0 mg/kg/injection, schedule: Q01DX010 (ip), vehicle: saline) was 100 % of control and the T/C (dose: 200.0 mg/kg/injection, schedule: Q01DX010 (ip), vehicle: saline) was 104 % of control.
With `CC(=O)OCCN1c2ccccc2Sc2cnccc21` the T/C [1] was 104 % of control, the T/C [2] was 90 % of control and the T/C [3] was 95 % of control.
With `Cc1ccc(Nc2ccc(Nc3ccc(C)cc3)c3c2C(=O)c2ccccc2C3=O)cc1` the T/C [4] was 90 % of control, the T/C [5] was 86 % of control and the T/C [1] was 88 % of control. The T/C [6] was 90 % of control and the T/C [2] was 100 % of control.
For `COc1ccc(C(=O)CC(=O)CC(=O)c2ccccc2)cc1`, the T/C [7] was 86 % of control and the T/C (dose: 400.0 mg/kg/injection, schedule: Q01DX009 (ip), vehicle: Klucel (hydroxypropylcellulose) (HPC)) was 90 % of control.
With `Brc1csc2ncccc12` the T/C [8] was 90 % of control and the T/C [9] was 109 % of control.
With `COC(=O)C1(C)N=C(Cc2ccccc2)OO1` (stereo not drawn) the T/C [10] was 100 % of control, the T/C [4] was 110 % of control and the T/C [5] was 105 % of control.
In the case of `C=C(C)CNc1ccccc1`, the T/C [10] is reported as 119 % of control, the T/C [4] is reported as 123 % of control and the T/C [5] is reported as 103 % of control and 123 % of control.
In the case of `CC(C)c1cccc(C(C)C)c1NC(=O)N1CCOCC1`, the T/C [4] is reported as 100 % of control, the T/C [5] is reported as 93 % of control and the T/C [6] is reported as 90 % of control.
For `OC(CNc1ccc(Cl)cc1)COc1ccc(Cl)cc1Cl` (stereo not drawn), the T/C (dose: 50.0 mg/kg/injection, schedule: Q01DX009 (ip), vehicle: Klucel (hydroxypropylcellulose) (HPC)) was 100 % of control, the T/C (dose: 100.0 mg/kg/injection, schedule: Q01DX009 (ip), vehicle: Klucel (hydroxypropylcellulose) (HPC)) was 101 % of control and the T/C [7] was 102 % of control.
With `CCCCCCCCCCCCSSC(=S)OC(C)C` the T/C [11] was 106 % of control and the T/C [12] was 124 % of control.
For `S=C(NNC(=S)Nc1ccc(Cl)cc1)NNc1ccccc1`, the T/C (dose: 25.0 mg/kg/injection, schedule: Q01DX009 (ip), vehicle: other) was 100 % of control, the T/C [11] was 100 % of control and the T/C (dose: 50.0 mg/kg/injection, schedule: Q04DX003 (ip), vehicle: Klucel (hydroxypropylcellulose) (HPC)) was 104 % of control. The T/C (dose: 100.0 mg/kg/injection, schedule: Q01DX001 (ip), vehicle: Klucel (hydroxypropylcellulose) (HPC)) was 100 % of control, the T/C [12] was 115 % of control and the T/C [8] was 100 % of control. The T/C (dose: 150.0 mg/kg/injection, schedule: Q01DX009 (ip), vehicle: Klucel (hydroxypropylcellulose) (HPC)) was 110 % of control, the T/C (dose: 200.0 mg/kg/injection, schedule: Q01DX001 (ip), vehicle: Klucel (hydroxypropylcellulose) (HPC)) was 90 % of control and the T/C [9] was 100 % of control. The T/C (dose: 220.0 mg/kg/injection, schedule: Q01DX009 (ip), vehicle: Klucel (hydroxypropylcellulose) (HPC)) was 110 % of control, the T/C (dose: 225.0 mg/kg/injection, schedule: Q01DX009 (ip), vehicle: Klucel (hydroxypropylcellulose) (HPC)) was 110 % of control and the T/C (dose: 335.0 mg/kg/injection, schedule: Q01DX009 (ip), vehicle: Klucel (hydroxypropylcellulose) (HPC)) was 110 % of control. For the same compound, the T/C (dose: 400.0 mg/kg/injection, schedule: Q01DX001 (ip), vehicle: Klucel (hydroxypropylcellulose) (HPC)) was 104 % of control.
With `CC(=O)c1ccc2ccccc2c1OC(=O)c1cccnc1` the T/C [11] was 100 % of control, the T/C [12] was 109 % of control and the T/C (dose: 200.0 mg/kg/injection, schedule: Q01DX009 (ip), vehicle: other) was 118 % of control.
`CCC[CH2][Sn]1([CH2]CCC)[O]OC(c2ccc(OC)cc2)[O]1` (stereo not drawn) was tested, and the T/C (dose: 3.12 mg/kg/injection, schedule: Q01DX009 (sc), vehicle: olive oil, sesame oil, peanut oil) was 112 % of control and the T/C (dose: 6.25 mg/kg/injection, schedule: Q01DX009 (sc), vehicle: olive oil, sesame oil, peanut oil) was 99 % of control.
